From PMC3894558, “Chemical signatures and new drug targets for gametocytocidal drug development” (Scientific Reports, 2014)
Like-named read-outs stand apart in the source and are kept apart here.

Tested on: P. falciparum 3D7 gametocytes
Experiment: alamarBlue gametocyte viability assay, strain 3D7
Type: cell-based, Plasmodium falciparum
Conditions: for Max Resp: DMSO set at 0%, 100 nM epoxomicin set at -100%; for Curve Class / IC50: stages III-V 3D7 gametocytes; for IC50: 11 concentrations, 1:3 dilution; call rule not given here

Row | SMILES | Max Resp (Malaria Box) [%] | Curve Class (Malaria Box) | IC50 (Malaria Box, read-out: IC50) [µM] | IC50 (Malaria Box) | IC50 (Plasmodium falciparum, 3D7, Malaria Box, read-out: IC50) [µM]
1 | COc1ccc2c(c1)C1(Nc3ccccc3-c3nc4ccccc4n31)C(=O)N2 (stereo not drawn) [MMV396749] | -61 | -2.2 | 18.7 |  | 
2 | O=C(NNc1cc(N2CCCC2)nc(N2CCCC2)n1)c1ccccc1 [MMV396770] | -93 | -2.1 | 10.5 |  | 
3 | CC(C)(C)CC(C)(C)NCC(O)COc1ccc(Cl)cc1Cl (stereo not drawn) [MMV396794] | -106 | -1.1 | 2.96 |  | 
4 | COc1ccc(-c2c(C)nn3c(N)c(C#N)cnc23)cc1OC [MMV396797] | -90 | -1.1 | 6.62 |  | 
5 | Cc1cccc(-n2ncc3c(O)nc(-n4nc(C)cc4NC(=O)c4cc5ccccc5o4)nc32)c1 [MMV403679] | -64 | -2.2 | 18.7 |  | 
6 | CCOC(=O)c1c[nH]c2c(CC)cccc2c1=O [MMV498479] | 28 | 4 |  | Inactive | 
7 | Nc1ccn([C@@H]2O[C@H](CO)[C@@H](O)[C@H]2O)c(=O)n1 [MMV638723] | -5 | 4 |  | Inactive | 
8 | C=CC12CCN(CC1)C(C(O)c1ccnc3ccc(OC)cc13)C2.Cl (stereo not drawn) [MMV665782] | -31 | -1.2 | 0.209 |  | 
9 | CCN(CC)CCCNc1ccnc2cc3ccccc3cc12 [MMV665783] | -50 | -2.2 |  | Inactive | 
10 | CC(C)(C)c1ccc(O)c(CNC2CCCCC2)c1 [MMV665785] | -50 | -1.2 | 0.148 |  | 
11 | O=c1cc(NC2CCN(CCCc3ccccc3)CC2)c2cc(Cl)ccc2o1 [MMV665786] | -89 | -2.1 | 14.8 |  | 
12 | CC(NCc1ccccc1)c1cc(Cl)ccc1O (stereo not drawn) [MMV665789] | -58 | -1.2 | 1.32 |  | 
13 | FC(F)(F)c1cccc(Nc2nc3ccccc3nc2Nc2cccc(C(F)(F)F)c2)c1 [MMV665794] | -98 | -2.1 | 18.7 |  | 
14 | CCOc1cc(Br)c(C(C)NC(=O)c2cccc(OC)c2)cc1OCC (stereo not drawn) [MMV665796] | -58 | -2.2 | 37.2 |  | 
15 | CCCCOC(=O)c1ccc(Nc2cc(C)nc3ccc(OC)cc23)cc1 [MMV665797] | -47 | -2.2 |  | Inactive | 
16 | FC(F)(F)c1cccc(Nc2nc(-c3ccccc3)nc3ncccc23)c1 [MMV665798] | -7 | 4 |  | Inactive | 
17 | COc1ccc(C(=O)Nc2ccc(Cl)cc2C(=O)Nc2ccncc2)cc1 [MMV665799] | -28 | 4 |  | Inactive | 
18 | CCOc1cc(Cl)c(C(C)NC(=O)c2ccccc2)cc1OCC (stereo not drawn) [MMV665800] | -48 | -2.2 |  | Inactive | 
19 | CCOc1cc(Cl)c(C(C)NC(=O)c2cccc(OC)c2)cc1OCC (stereo not drawn) [MMV665803] | -58 | -2.2 | 29.6 |  | 
20 | CCOc1ccc(-c2nonc2NC(=O)c2cccc(C)c2)cc1OCC [MMV665805] | -69 | -1.2 | 4.18 |  | 

Row | SMILES | Max Resp (Malaria Box) [%] | Curve Class (Malaria Box) | IC50 (Malaria Box, read-out: IC50) [µM] | IC50 (Malaria Box) | IC50 (Plasmodium falciparum, 3D7, Malaria Box, read-out: IC50) [µM]
21 | Cc1c(C)n(CC(O)CNC2CCCCC2C)c2ccccc12 (stereo not drawn) [MMV665806] | -89 | -1.1 | 3.32 |  | 
22 | O=C(Nc1cccc(C(F)(F)F)c1)c1cc(Cl)ccc1O [MMV665807] | -84 | -2.1 | 20.9 |  | 
23 | Oc1ccc(Br)cc1CN1CCN(Cc2ccc(Cl)cc2)CC1 [MMV665809] | -58 | -1.2 | 3.72 |  | 
24 | O=C(Nc1cccc(C2=NCCN2)c1)Nc1cccc(C2=NCCN2)c1 [MMV665810] | -78 | -2.2 |  |  | 18.7
25 | CCc1ccc(CNCC(O)c2ccccc2)cc1.Cl (stereo not drawn) [MMV665812] | -74 | -1.2 | 5.26 |  | 
26 | CCOC(=O)c1cnc2ccc(OC)cc2c1NCc1ccccc1 [MMV665813] | -14 | 4 |  | Inactive | 
27 | Oc1c(C(Nc2ccccn2)c2cccc(Oc3ccccc3)c2)ccc2cccnc12 (stereo not drawn) [MMV665814] | -107 | -2.1 | 9.35 |  | 
28 | CC(C)(C)CC(C)(C)NCC(O)COc1ccc2c(c1)CCC2.Cl (stereo not drawn) [MMV665817] | -107 | -2.1 | 9.35 |  | 
29 | COc1ccc2c(=O)cc(C(Cl)(Cl)Cl)oc2c1 [MMV665820] | -101 | -1.1 | 3.72 |  | 
30 | Cn1c(C(=O)c2cccc3ccccc23)nc2ccccc21 [MMV665824] | -53 | -2.4 |  | Inactive | 
31 | COc1cccc(NC(=O)Cn2c(C)c(C#N)c3ccccc32)c1 [MMV665826] | -52 | -2.2 |  | Inactive | 
32 | CCOC(=O)c1cn(CC)c2cc(N3CCCCC3)c(F)cc2c1=O [MMV665827] | 7 | 4 |  | Inactive | 
33 | CC1CC2=C(CC1CNCCCN(C)C)C(C)(C)CCC2 (stereo not drawn) [MMV665830] | -88 | -1.1 | 1.66 |  | 
34 | CCOC(=O)c1c(NC(=O)c2ccccc2)sc2c(O)c(CN(CC)CC)ccc12 [MMV665831] | -58 | -2.2 | 7.43 |  | 
35 | COc1ccc(/C=C2/SC(=Nc3ccccc3)NC2=O)cc1 [MMV665836] | 13 | 4 |  | Inactive | 
36 | O=C(Nc1ccc(-c2nc3ccccc3[nH]2)cc1)c1ccc(Cl)c(Cl)c1 [MMV665840] | -16 | 4 |  | Inactive | 
37 | CCCc1cc(O)c2c3c(c(=O)oc2c1)CN(C)CC3 [MMV665841] | -28 | -1.2 | 0.662 |  | 
38 | O=c1c2c([nH]c3ccccc13)CCCC2 [MMV665843] | -7 | 4 |  | Inactive | 
39 | Oc1ccc(Cl)cc1CNc1nc2ccccc2[nH]1 [MMV665850] | -50 | -2.2 |  | Inactive | 
40 | O=C(Nc1ccc(Cl)c(Cl)c1)Nc1ccc(Cl)c(Cl)c1 [MMV665852] | -88 | -2.1 | 23.5 |  | 

Row | SMILES | Max Resp (Malaria Box) [%] | Curve Class (Malaria Box) | IC50 (Malaria Box, read-out: IC50) [µM] | IC50 (Malaria Box) | IC50 (Plasmodium falciparum, 3D7, Malaria Box, read-out: IC50) [µM]
41 | CCOc1c(Cl)cc(CNC(C)C(O)c2ccccc2)cc1OC (stereo not drawn) [MMV665857] | -77 | -2.2 | 14.8 |  | 
42 | CCCCNc1nc(NC(C)(C)C)nc(NC(C)(C)C)n1 [MMV665864] | -93 | -2.1 | 13.2 |  | 
43 | Cc1cc(Nc2ccc(C)c(Cl)c2)n2nc(C(F)(F)F)nc2n1 [MMV665874] | -2 | 4 |  | Inactive | 
44 | Cl.Cn1c(=O)n(C)c2cc(CNCCNc3ccnc4cc(Cl)ccc34)ccc21 [MMV665875] | -41 | -1.2 | 0.372 |  | 
45 | CCC(c1ccccc1)c1nn2c(-c3cccs3)nnc2s1 (stereo not drawn) [MMV665876] | -47 | -2.2 |  | Inactive | 
46 | COc1cccc(NC(=O)[C@H](C(C)C)n2c(=O)[nH]c3ccccc3c2=O)c1 [MMV665878] | -82 | -1.1 | 2.64 |  | 
47 | CC(C)(C)C(=O)Nc1ccc(C(=O)Nc2cccc(-c3nc4ccccc4[nH]3)c2)cc1 [MMV665879] | -23 | 4 |  | Inactive | 
48 | COc1ccc(CNC(=O)c2cc3c(=O)n4ccccc4nc3n(CCc3ccccc3)c2=N)cc1 [MMV665881] | -29 | 4 |  | Inactive | 
49 | OC(CNC1CCCCC1)Cn1c2ccc(I)cc2c2cc(I)ccc21 (stereo not drawn) [MMV665882] | -97 | -2.1 | 2.96 |  | 
50 | O=C(Nc1cccc(-c2nc3ccccc3[nH]2)c1)c1cccc(NC(=O)c2ccco2)c1 [MMV665883] | -25 | 4 |  | Inactive | 
51 | CC(Oc1ccc(NC(=O)c2cccs2)cc1)C(=O)c1ccc(Cl)cc1 (stereo not drawn) [MMV665886] | 44 | 2.2 | 18.7 |  | 
52 | O=C(Nc1ccccc1O)c1ccc(Oc2cccc(C(=O)Nc3ccccc3O)c2)cc1 [MMV665888] | -76 | -2.2 | 14.8 |  | 
53 | COc1ccc(-c2nonc2NC(=O)c2cccc(C)c2)cc1OC [MMV665890] | -38 | -3 |  | Inactive | 
54 | c1ccc(-c2ccc(-c3nc4ccccc4[nH]3)cc2)cc1 [MMV665891] | 18 | 4 |  | Inactive | 
55 | CC(=O)c1sc(NC(=O)Nc2ccc(C)cc2C)nc1C [MMV665894] | -23 | 4 |  | Inactive | 
56 | COc1ccc2nc(N)nc(C)c2c1 [MMV665897] | -66 | -2.2 | 29.6 |  | 
57 | COc1cc(C(=O)Nc2ccc(-c3nc4ccccc4[nH]3)cc2)cc(OC)c1OC [MMV665898] | -26 | 4 |  | Inactive | 
58 | O=C(c1ccccc1F)N(Cc1ccc(Cl)cc1)c1ccccn1 [MMV665899] | -26 | 4 |  | Inactive | 
59 | O=C(Nc1ccc(CN2CCOCC2)cc1)c1ccc(-c2ccc(Br)cc2)o1 [MMV665901] | -41 | -2.4 |  | Inactive | 
